# Tested on: MDA MB175 (vs HME-1)
# Assay: Labeling of cancer and non-cancer cells, fluorescence signal ratio
# Format: cell-based, human
# Conditions: MDA MB175 (30 h) vs HME-1 (30 h); Ara-N3 10 mM; FBS 10%; one doubling time
# Protocol: The fluorescence Assimilation of Ara-N3 probes was visualized by copper-free click chemistry using sulfo-DBCO-biotin (1 mM), followed by labeling with a mouse anti-biotin Alexa Fluor 488 antibody conjugate (0.62 mg/ml stock, Jackson ImmunoResearch, dilution 1/10). The click reaction was carry-out as following: At 24 h incubation times, the culture mediums were removed, and attached cells were washed twice with PBS. Cells were detached with Tryp-LE, washed twice with PBS, and centrifuged at 13000 g for 2 min. The cellular pellets were resuspended with 10 μL of sulfo-DBCO-biotin and incubated 30 min in the dark, and at 37 C°. Then, cells were washed twice with PBS, centrifuged, and cellular pellets were resuspended with 10 μL of a mouse anti-biotin antibody solution, before to be incubated at room temperature in dark. Thereafter, cells were washed twice with PBS and small cellular suspension spots (5 μL) were put in Polysine® adhesion slides (VWR international S.A.S), in the dark room, until dry (20 min). The spots were fixed with 4% paraformaldehyde during 20 min, in dark and room temperature. Slides were then washed twice with PBS, before recovering with square cover glasses (VWR international S.A.S) using glycerol Mounting Medium (Dako) and stored at 4° C. in dark room.
# The fluorescence acquisition was recorded using Olympus Microscopy IX83 (Olympus Life Science) equipped with a 60×/1.3 […]/1.4 SRI (silicone refractive index) objective, and Hamamatsu oreca flash 4 LT camera with 109 nm/pixel calibrated pixel size. The excitation light was emitted by X-CITE 120LED using the AT180/30X excited filter and signal was monitored using AT535/40m emission filter. Green light exposition time was 600 ms and white light exposition time was determined by DIC methods at […]. The acquisition area size analyzed by the Celisens dimension V1.16 software was different depending on the cell number containing in the spot.
# The images were processed using count and measure unit of the Cellsens dimension V1.16 software. The background noise was deleted as follows: ROI were first defined on the background of the image and the average pixel intensity was calculated. The value thus obtained was subtracted from all pixels of the image. The fluorescence intensity of each cell was determined from a threshold set at a value of 3030. All pixels that have intensity below 3030 were not counted.
# The same experiments as in example 2 with other cancer and corresponding non cancer cells were performed. The culture media were adapted to the tested cells and supplemented by 10% fetal bovine serum (FBS). Ara-N3 probe (10 mM) was added to culture media with FBS concentration (10%). The incubation times corresponded to one doubling time or twice doubling time of the tested cells (see table below).
# The fluorescence signal cancer/non cancer ratios were calculated based on fluorescence intensities obtained with Ara-N3 tested on cancer and corresponding non cancer cells.
structure (smiles),measurement,value
"[N-]=[N+]=NC[C@H]1OC(O)[C@@H](O)[C@@H]1O (stereo partly drawn) [Ara-N3, 5-azido-5-deoxy-D-arabinofuranose]",Cancer/Non Cancer Ratio (fluorescence signal),2

# — US12517131B2, “Methods for labeling eukaryotic cells from a multicellular organism as well as for treating and/or diagnosing a cancer using modified monosaccharide compounds” (DIAMIDEX, priority 2019, dated 2026)
